Reference: patent US11926628B2 (Gilead Sciences, Inc., priority 2021, dated 2024)

Key:
human DGKα = human DGKα (Homo sapiens (Human), UniProt P23743); assay: DGKα Biochemical Activity Assay (ADP-Glo); conditions: recombinant DGKα 1 nM, 100 μM ATP, 18:1 DAG/POPS/octylglucoside micelles, 1 hour at 25° C.; geometric mean; read-out: HTBS DGKa 1X ATP KM IC50
Source text: Alternatively, the enzymatic activity of human DGKα was monitored in a biochemical assay in the presence or absence of compounds and using micelles containing 18:1 Diacylglycerol (DAG), 16:0-18:1 PS (POPS) and Octylglucoside as substrate. DGKα activity led to conversion of DAG and ATP to Phosphatidic Acid (PA) and ADP. Levels of ADP were monitored by bioluminescence using the ADP-Glo Kinase Assay (Promega) and were indicative of DGKα activity.
Ten nanoliters of test compound dissolved in DMSO at various concentrations were dispensed into a 384-well low volume nonbinding service white plates (Corning #3824) using a Labcyte Echo instrument. Recombinant DGKα (Carna Biosciences) in assay buffer (5 μL in 50 mM MOPS [3-(N-morpholino) propanesulfonic acid], pH 7.2; 0.0025% Triton X-100; 1 mM dithiothreitol; 5 mM MgCl2, 200 μM ATP) was added to the compound-containing plate and was incubated for 15 minutes at 25° C. A substrate solution (5 μL in 1.7 mM 1,2-dioleoyl-sn-glycerol [18:1 DAG], 13.5 mM 1-palmitoyl-2-oleoyl-sn-glycero-3-phospho-L-serine [16:0-18:1 PS](POPS), 2 μM CaCl2, 100 mM Octylglucoside (OG), 1 mM DTT) (obtained from Carna Biosciences) diluted in DGK ALPHA assay buffer was then added to start the reaction. Final concentrations were 1 nM DGKα, 100 μM ATP, 1 μM calcium chloride, 0.85 mM 1,2-dioleoyl-sn-glycerol (18:1 DAG), 6.75 mM 1-palmitoyl-2-oleoyl-sn-glycero-3-phospho-L-serine (16:0-18:1 PS) (POPS), 1 μM CaCl2), 50 mM Octylglucoside (OG) and 5 mM MgCl2. The reaction mixture was incubated at 25° C. for 1 hour. ADP-Glo Reagent (10 μL, 10 mM Mg added) provided by the kit was added to each well and incubated at 25° C. for 40 minutes. Then, 20 μL of Kinase Detection Reagent was added and incubated at 25° C. for 40 minutes. Luciferase activity of each well was measured via luminescence on an Envision plate reader (PerkinElmer).
Data were normalized based on maximum inhibition (50 μM of kinase inhibitor CU3) and no inhibition (DMSO) controls. Least squares curve fittings were performed using a four-parameter variable slope nonlinear regression model. IC50 was defined as the concentration of compound required to inhibit 50% of maximum activity. IC50 values from multiple experiments were averaged by geometric mean and the standard deviation was calculated.

[1] = system: Jurkat NFκB-luciferase cells; assay: Jurkat NFκB-Luciferase Assay; assay type: cell-based; conditions: Homo sapiens; Jurkat NFκB-luciferase cells activated with anti-CD3 antibody (OKT3), 2.5 hrs at 37° C.; geometric mean; read-out: DGK NFKb Luciferase EC50
Protocol: The activity of compounds was tested in a cell based NFκB reporter assay. Jurkat cells that are stably expressing a luciferase reporter construct under the transcriptional control of a NFκB reporter element were activated with an anti-CD3 antibody and luciferase levels were measured with a bioluminescence readout. An increase in the levels of bioluminescence was indicative of enhanced T-cell activation following DGKα inhibition by the compound.
Flat-bottom polystyrene plates (384-well, tissue culture treated) were coated overnight at 4° C. with 20 ul/well of a solution of phosphate-buffered saline supplemented with 5 ug/ml anti-CD3 antibody (clone OKT3, Biolegend). The day after, the excess antibody was washed out five times with 100 ul/well of assay medium (RPMI supplemented with 10% fetal bovine serum) using a Biotek EL406 instrument and leaving 20 ul of residual volume in each well. Jurkat NFκB-luciferase cells (Promega #) were harvested and diluted to 1 million cells/ml in assay medium. Sixty nanoliters of test compound dissolved in DMSO at various concentrations were dispensed into 384-well v-bottom polypropylene plates (Greiner) using a Labcyte Echo instrument. Thirty microliters of medium containing the Jurkat NFκB-luciferase cells were then dispensed using a Biotek MicroFlo instrument in each well of the compound-containing plate. The medium/cell/compound mixture was mixed with a Bravo instrument and 20 ul/well of the mixture was transferred to the anti-CD3-coated plate. The assay mixture was then incubated for 2.5 hrs at 37° C. followed by equilibration at 25° C. for 30 min. Forty microliters of One-Glo Ex (Promega) was then added to the assay mixture and luciferase activity was read on a Envision plate reader 7 minutes later.
Bioluminescence data were normalized based on maximum enhancement (1 micromolar of compound) and on basal activation (DMSO) controls. Least squares curve fittings were performed using a four-parameter variable slope nonlinear regression model. EC50 is defined as the concentration of compound required to produce 50% of maximum NFκB luciferase signal. EC50 values from multiple experiments were averaged by geometric mean and the standard deviation was calculated.

Sequence of human DGKα (P23743 whole entry): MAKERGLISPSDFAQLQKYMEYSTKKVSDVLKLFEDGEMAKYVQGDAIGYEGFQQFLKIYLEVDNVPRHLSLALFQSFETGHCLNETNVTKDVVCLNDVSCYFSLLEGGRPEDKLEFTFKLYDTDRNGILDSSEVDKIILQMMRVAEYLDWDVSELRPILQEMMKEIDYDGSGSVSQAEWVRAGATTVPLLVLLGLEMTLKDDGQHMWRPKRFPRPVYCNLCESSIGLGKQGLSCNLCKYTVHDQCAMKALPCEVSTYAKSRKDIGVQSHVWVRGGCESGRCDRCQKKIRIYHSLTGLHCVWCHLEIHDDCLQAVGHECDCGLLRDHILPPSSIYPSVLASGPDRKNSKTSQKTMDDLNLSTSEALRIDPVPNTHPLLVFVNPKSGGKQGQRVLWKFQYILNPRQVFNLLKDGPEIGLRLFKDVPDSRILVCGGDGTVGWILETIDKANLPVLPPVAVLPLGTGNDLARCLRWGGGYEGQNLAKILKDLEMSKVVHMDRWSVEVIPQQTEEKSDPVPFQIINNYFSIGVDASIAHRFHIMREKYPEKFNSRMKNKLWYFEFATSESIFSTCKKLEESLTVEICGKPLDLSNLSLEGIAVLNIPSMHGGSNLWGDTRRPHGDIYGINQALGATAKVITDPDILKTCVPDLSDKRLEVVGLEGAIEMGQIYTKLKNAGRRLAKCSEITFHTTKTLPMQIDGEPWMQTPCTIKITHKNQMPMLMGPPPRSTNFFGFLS

Structure (SMILES): Fc1cc(C#CC2(C(F)(F)F)CC2)cc(N(CC(F)F)c2nc3nncn3c3cccnc23)c1 [Example 20, N-(2,2-difluoroethyl)-N-(3-fluoro-5-((1-(trifluoromethyl)cyclopropyl)ethynyl)phenyl)pyrido[2,3-e][1,2,4]triazolo[4,3-a]pyrimidin-5-amine]
- IC50 (human DGKα): 71.8 nM
- EC50 [1]: 2.9 nM

Structure (SMILES): Cc1nnc2nc(N3CCCc4c(C#CC(C)(C)C(F)(F)F)cccc43)c3ncccc3n12 [Example 21, 3-methyl-8-[5-(4,4,4-trifluoro-3,3-dimethyl-but-1-ynyl)-3,4-dihydro-2H-quinolin-1-yl]-2,4,5,7,10-pentazatricyclo[7.4.0.02,6]trideca-1(13),3,5,7,9,11-hexaene]
- IC50 (human DGKα): 73.9 nM
- EC50 [1]: 12.5 nM

Structure (SMILES): Cc1nnc2nc(N3CCCc4c(C#CC5(C)CC5)cccc43)c3ncccc3n12 [Example 22, 3-methyl-8-[5-[2-(1-methylcyclopropyl)ethynyl]-3,4-dihydro-2H-quinolin-1-yl]-2,4,5,7,10-pentazatricyclo[7.4.0.02,6]trideca-1(13),3,5,7,9,11-hexaene]
- IC50 (human DGKα): 23.2 nM
- EC50 [1]: 3.26 nM

Structure (SMILES): Cc1nnc2nc(N3CCCc4c(C#CC5(C(F)(F)F)CC5)cccc43)c3ncccc3n12 [Example 23, 3-methyl-8-[5-[2-[1-(trifluoromethyl)cyclopropyl]ethynyl]-3,4-dihydro-2H-quinolin-1-yl]-2,4,5,7,10-pentazatricyclo[7.4.0.02,6]trideca-1(13),3,5,7,9,11-hexaene]
- IC50 (human DGKα): 41.9 nM
- EC50 [1]: 13.5 nM

Structure (SMILES): CC1(C#Cc2cccc3c2CCCN3c2nc3nncn3c3cccnc23)CC1 [Example 24, 8-[5-[2-(1-methylcyclopropyl)ethynyl]-3,4-dihydro-2H-quinolin-1-yl]-2,4,5,7,10-pentazatricyclo[7.4.0.02,6]trideca-1(13),3,5,7,9,11-hexaene]
- IC50 (human DGKα): 17 nM
- EC50 [1]: 2.77 nM

Structure (SMILES): FC(F)(F)C1(C#Cc2cccc3c2CCCN3c2nc3nncn3c3cccnc23)CC1 [Example 25, 8-[5-[2-[1-(trifluoromethyl)cyclopropyl]ethynyl]-3,4-dihydro-2H-quinolin-1-yl]-2,4,5,7,10-pentazatricyclo[7.4.0.02,6]trideca-1(13),3,5,7,9,11-hexaene]
- IC50 (human DGKα): 22.6 nM
- EC50 [1]: 3.08 nM

Structure (SMILES): Cc1nnc2nc(N3CCCc4c(C#CC5(CF)CC5)cccc43)c3ncccc3n12 [Example 26, 5-(5-((1-(fluoromethyl)cyclopropyl)ethynyl)-3,4-dihydroquinolin-1(2H)-yl)-1-methylpyrido[2,3-e][1,2,4]triazolo[4,3-a]pyrimidine]
- IC50 (human DGKα): 21.2 nM
- EC50 [1]: 8.37 nM

Structure (SMILES): FCC1(C#Cc2cccc3c2CCCN3c2nc3nncn3c3cccnc23)CC1 [Example 27, 5-(5-((1-(fluoromethyl)cyclopropyl)ethynyl)-3,4-dihydroquinolin-1(2H)-yl)pyrido[2,3-e][1,2,4]triazolo[4,3-a]pyrimidine]
- IC50 (human DGKα): 6.83 nM
- EC50 [1]: 6.11 nM

Structure (SMILES): Cc1nnc2nc(N3CCCc4c(C#CC(C)(C)O)cccc43)c3c(F)cncc3n12 [Example 28, 4-(1-(6-fluoro-1-methylpyrido[4,3-e][1,2,4]triazolo[4,3-a]pyrimidin-5-yl)-1,2,3,4-tetrahydroquinolin-5-yl)-2-methylbut-3-yn-2-ol]
- IC50 (human DGKα): 11.9 nM
- EC50 [1]: 33.6 nM

Structure (SMILES): Cc1nnc2nc(N3CCCc4c3ccnc4C#CC3(C(C)(F)F)CC3)c3c(F)cncc3n12 [Example 29, 5-(5-((1-(1,1-difluoroethyl)cyclopropyl)ethynyl)-3,4-dihydro-1,6-naphthyridin-1(2H)-yl)-6-fluoro-1-methylpyrido[4,3-e][1,2,4]triazolo[4,3-a]pyrimidine]
- IC50 (human DGKα): 37.7 nM
- EC50 [1]: 7.24 nM

Structure (SMILES): Cc1nnc2nc(N3CCCc4c3ccnc4C#CC(C)(C)C(F)(F)F)c3c(F)cncc3n12 [Example 30, 6-fluoro-1-methyl-5-(5-(4,4,4-trifluoro-3,3-dimethylbut-1-yn-1-yl)-3,4-dihydro-1,6-naphthyridin-1(2H)-yl)pyrido[4,3-e][1,2,4]triazolo[4,3-a]pyrimidine]
- IC50 (human DGKα): 24.8 nM
- EC50 [1]: 13.2 nM

Structure (SMILES): Cc1nnc2nc(N3CCCc4c3ccnc4C#CC(C)(C)C#N)c3c(F)cncc3n12 [Example 31, 4-(1-(6-fluoro-1-methylpyrido[4,3-e][1,2,4]triazolo[4,3-a]pyrimidin-5-yl)-1,2,3,4-tetrahydro-1,6-naphthyridin-5-yl)-2,2-dimethylbut-3-ynenitrile]
- IC50 (human DGKα): 72.3 nM
- EC50 [1]: 81.1 nM

Structure (SMILES): Cc1nnc2nc(N3CCCc4c3ccnc4C#CC3(C)CC3)c3c(F)cncc3n12 [Example 32, 6-fluoro-1-methyl-5-(5-((1-methylcyclopropyl)ethynyl)-3,4-dihydro-1,6-naphthyridin-1(2H)-yl)pyrido[4,3-e][1,2,4]triazolo[4,3-a]pyrimidine]
- IC50 (human DGKα): 12.6 nM
- EC50 [1]: 8.79 nM

Structure (SMILES): Cc1nnc2nc(N3CCCc4c3ccnc4C#CC3(C(F)(F)F)CC3)c3c(F)cncc3n12 [Example 33, 6-fluoro-1-methyl-5-(5-((1-(trifluoromethyl)cyclopropyl)ethynyl)-3,4-dihydro-1,6-naphthyridin-1(2H)-yl)pyrido[4,3-e][1,2,4]triazolo[4,3-a]pyrimidine]
- IC50 (human DGKα): 22.4 nM
- EC50 [1]: 5.13 nM

Structure (SMILES): Cc1nnc2nc(N3CCCc4c(C#CC5(C(C)(F)F)CC5)cncc43)c3c(F)cncc3n12 [Example 34, 5-(5-((1-(1,1-difluoroethyl)cyclopropyl)ethynyl)-3,4-dihydro-1,7-naphthyridin-1(2H)-yl)-6-fluoro-1-methylpyrido[4,3-e][1,2,4]triazolo[4,3-a]pyrimidine]
- IC50 (human DGKα): 42.8 nM
- EC50 [1]: 3.34 nM

Structure (SMILES): Cc1nnc2nc(N3CCCc4c(C#CC5(C(F)F)CC5)cncc43)c3c(F)cncc3n12 [Example 35, 5-(5-((1-(difluoromethyl)cyclopropyl)ethynyl)-3,4-dihydro-1,7-naphthyridin-1(2H)-yl)-6-fluoro-1-methylpyrido[4,3-e][1,2,4]triazolo[4,3-a]pyrimidine]
- IC50 (human DGKα): 20.1 nM
- EC50 [1]: 5.97 nM

Structure (SMILES): Cc1nnc2nc(N3CCCc4c(C#CC(C)(C)C(F)(F)F)cncc43)c3c(F)cncc3n12 [Example 36, 6-fluoro-1-methyl-5-(5-(4,4,4-trifluoro-3,3-dimethylbut-1-yn-1-yl)-3,4-dihydro-1,7-naphthyridin-1(2H)-yl)pyrido[4,3-e][1,2,4]triazolo[4,3-a]pyrimidine]
- IC50 (human DGKα): 40.4 nM
- EC50 [1]: 8.86 nM

Structure (SMILES): Cc1nnc2nc(N3CCCc4c(C#CC(C)(C)C#N)cncc43)c3c(F)cncc3n12 [Example 37, 4-(1-(6-fluoro-1-methylpyrido[4,3-e][1,2,4]triazolo[4,3-a]pyrimidin-5-yl)-1,2,3,4-tetrahydro-1,7-naphthyridin-5-yl)-2,2-dimethylbut-3-ynenitrile]
- IC50 (human DGKα): 52.9 nM
- EC50 [1]: 54.9 nM

Structure (SMILES): Cc1nnc2nc(N3CCCc4c(C#CC5(C)CC5)cncc43)c3c(F)cncc3n12 [Example 38, 6-fluoro-1-methyl-5-(5-((1-methylcyclopropyl)ethynyl)-3,4-dihydro-1,7-naphthyridin-1(2H)-yl)pyrido[4,3-e][1,2,4]triazolo[4,3-a]pyrimidine]
- IC50 (human DGKα): 17.9 nM
- EC50 [1]: 6.07 nM
